# Source: PubChem BioAssay (NCI)
#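 Protocol summary: plate cells (96-well), add compound at 5 concentrations, incubate 48 h, interpolate endpoints linearly. GI50 marks 50% less growth. TGI denotes the concentration required for complete inhibition of growth.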
# Assays:
# Experiment in all cases: NCI-60 cell line screen, 48 h
# MDA-MB-231 breast = test system: MDA-MB-231 breast
# NCI-H226 lung = test system: NCI-H226 lung
# OVCAR-5 ovarian = test system: OVCAR-5 ovarian
# SK-MEL-5 melanoma = test system: SK-MEL-5 melanoma
# OVCAR-3 ovarian = test system: OVCAR-3 ovarian
# MDA-MB-435 = test system: MDA-MB-435
# NCI-H460 lung = test system: NCI-H460 lung
# OVCAR-8 ovarian = test system: OVCAR-8 ovarian
# MALME-3M melanoma = test system: MALME-3M melanoma
# SK-MEL-28 melanoma = test system: SK-MEL-28 melanoma
# IGROV1 ovarian = test system: IGROV1 ovarian
# COLO 205 colon = test system: COLO 205 colon
# ACHN renal = test system: ACHN renal
# UACC-257 melanoma = test system: UACC-257 melanoma
# TK-10 renal = test system: TK-10 renal
# MCF7 breast = test system: MCF7 breast
# EKVX NSCLC = test system: EKVX NSCLC
# DU-145 prostate = test system: DU-145 prostate
# HT29 colon = test system: HT29 colon
# BT-549 breast = test system: BT-549 breast
# HCC-2998 colon = test system: HCC-2998 colon
# SF-539 CNS = test system: SF-539 CNS
# U251 CNS = test system: U251 CNS
# UACC-62 melanoma = test system: UACC-62 melanoma
# SK-OV-3 ovarian = test system: SK-OV-3 ovarian
# SK-MEL-2 melanoma = test system: SK-MEL-2 melanoma
# A498 renal = test system: A498 renal
# RPMI-8226 leukemia = test system: RPMI-8226 leukemia
# HOP-62 NSCLC = test system: HOP-62 NSCLC
# HS 578T breast = test system: HS 578T breast
# SN12C renal = test system: SN12C renal
# NCI/ADR-RES ovarian = test system: NCI/ADR-RES ovarian
# HCT-15 colon = test system: HCT-15 colon
# A549 NSCLC = test system: A549 NSCLC
# SW-620 colon = test system: SW-620 colon
# SF-295 CNS = test system: SF-295 CNS
# MOLT-4 leukemia = test system: MOLT-4 leukemia
# SNB-19 CNS = test system: SNB-19 CNS
# CAKI-1 renal = test system: CAKI-1 renal
# K-562 leukemia = test system: K-562 leukemia
# M14 melanoma = test system: M14 melanoma
# NCI-H23 lung = test system: NCI-H23 lung
# KM12 colon = test system: KM12 colon
# 786-0 renal = test system: 786-0 renal
# PC-3 prostate = test system: PC-3 prostate
# CCRF-CEM leukemia = test system: CCRF-CEM leukemia
# NCI-H522 lung = test system: NCI-H522 lung
# HCT-116 colon = test system: HCT-116 colon
# RXF 393 renal = test system: RXF 393 renal
# SR leukemia = test system: SR leukemia
# OVCAR-4 ovarian = test system: OVCAR-4 ovarian
# SF-268 CNS = test system: SF-268 CNS
# LOX IMVI melanoma = test system: LOX IMVI melanoma
# HOP-92 NSCLC = test system: HOP-92 NSCLC
# T-47D breast = test system: T-47D breast
# SNB-75 CNS = test system: SNB-75 CNS
# UO-31 renal = test system: UO-31 renal
structure (smiles),measurement,setting,value
COC(=O)c1ccc2c(c1)C(=O)c1c-2n(CCCN)c(=O)c2cc(OC)c(OC)cc12,GI50,MDA-MB-231 breast,13.6 µM
same,TGI,MDA-MB-231 breast,31.5 µM
same,GI50,NCI-H226 lung,16.7 µM
same,TGI,NCI-H226 lung,36.7 µM
same,GI50,OVCAR-5 ovarian,18.8 µM
same,TGI,OVCAR-5 ovarian,33.9 µM
same,GI50,SK-MEL-5 melanoma,17.4 µM
same,TGI,SK-MEL-5 melanoma,34.3 µM
same,GI50,OVCAR-3 ovarian,10.2 µM
same,TGI,OVCAR-3 ovarian,> 56.8 µM
same,GI50,MDA-MB-435,21.6 µM
same,TGI,MDA-MB-435,46.2 µM
same,GI50,NCI-H460 lung,13 µM
same,TGI,NCI-H460 lung,29.5 µM
same,GI50,OVCAR-8 ovarian,14.5 µM
same,TGI,OVCAR-8 ovarian,> 55 µM
same,GI50,MALME-3M melanoma,18.7 µM
same,TGI,MALME-3M melanoma,45.7 µM
same,GI50,SK-MEL-28 melanoma,17.9 µM
same,TGI,SK-MEL-28 melanoma,35.2 µM
same,GI50,IGROV1 ovarian,13.6 µM
same,TGI,IGROV1 ovarian,29.2 µM
same,GI50,COLO 205 colon,12.4 µM
same,TGI,COLO 205 colon,27.7 µM
same,GI50,ACHN renal,14.8 µM
same,TGI,ACHN renal,29.8 µM
same,GI50,UACC-257 melanoma,14.5 µM
same,TGI,UACC-257 melanoma,> 41.5 µM
same,GI50,TK-10 renal,16.9 µM
same,TGI,TK-10 renal,37.3 µM
same,GI50,MCF7 breast,8.79 µM
same,TGI,MCF7 breast,29.3 µM
same,GI50,EKVX NSCLC,17.7 µM
same,TGI,EKVX NSCLC,38.6 µM
same,GI50,DU-145 prostate,7.89 µM
same,TGI,DU-145 prostate,22.8 µM
same,GI50,HT29 colon,13.8 µM
same,TGI,HT29 colon,31.4 µM
same,GI50,BT-549 breast,17.1 µM
same,TGI,BT-549 breast,35.4 µM
same,GI50,HCC-2998 colon,11.9 µM
same,TGI,HCC-2998 colon,25.9 µM
same,GI50,SF-539 CNS,17.7 µM
same,TGI,SF-539 CNS,34.7 µM
same,GI50,U251 CNS,16 µM
same,TGI,U251 CNS,32.1 µM
same,GI50,UACC-62 melanoma,15.4 µM
same,TGI,UACC-62 melanoma,30.2 µM
same,GI50,SK-OV-3 ovarian,20.3 µM
same,TGI,SK-OV-3 ovarian,49.4 µM
same,GI50,SK-MEL-2 melanoma,31.2 µM
same,TGI,SK-MEL-2 melanoma,> 84.5 µM
same,GI50,A498 renal,17.4 µM
same,TGI,A498 renal,36.2 µM
same,GI50,RPMI-8226 leukemia,5.77 µM
same,TGI,RPMI-8226 leukemia,12.5 µM
same,GI50,HOP-62 NSCLC,6.09 µM
same,TGI,HOP-62 NSCLC,> 52.9 µM
same,GI50,HS 578T breast,18.5 µM
same,TGI,HS 578T breast,42.1 µM
same,GI50,SN12C renal,14.9 µM
same,TGI,SN12C renal,31.4 µM
same,GI50,NCI/ADR-RES ovarian,42.6 µM
same,TGI,NCI/ADR-RES ovarian,> 100 µM
same,GI50,HCT-15 colon,14.1 µM
same,TGI,HCT-15 colon,30.5 µM
same,GI50,A549 NSCLC,7.49 µM
same,TGI,A549 NSCLC,27.2 µM
same,GI50,SW-620 colon,7.9 µM
same,TGI,SW-620 colon,24.4 µM
same,GI50,SF-295 CNS,17.9 µM
same,TGI,SF-295 CNS,37.3 µM
same,GI50,MOLT-4 leukemia,1.83 µM
same,TGI,MOLT-4 leukemia,4.67 µM
same,GI50,SNB-19 CNS,19.5 µM
same,TGI,SNB-19 CNS,42.6 µM
same,GI50,CAKI-1 renal,18.6 µM
same,TGI,CAKI-1 renal,37.2 µM
same,GI50,K-562 leukemia,2.41 µM
same,TGI,K-562 leukemia,5.44 µM
same,GI50,M14 melanoma,18.7 µM
same,TGI,M14 melanoma,34.4 µM
same,GI50,NCI-H23 lung,17.1 µM
same,TGI,NCI-H23 lung,33.5 µM
same,GI50,KM12 colon,7.47 µM
same,TGI,KM12 colon,26 µM
same,GI50,786-0 renal,9.72 µM
same,TGI,786-0 renal,28.1 µM
same,GI50,PC-3 prostate,8.73 µM
same,TGI,PC-3 prostate,> 51.4 µM
same,GI50,CCRF-CEM leukemia,3.78 µM
same,TGI,CCRF-CEM leukemia,10.2 µM
same,GI50,NCI-H522 lung,17.1 µM
same,TGI,NCI-H522 lung,37.2 µM
same,GI50,HCT-116 colon,16.5 µM
same,TGI,HCT-116 colon,39.7 µM
same,GI50,RXF 393 renal,21.6 µM
same,TGI,RXF 393 renal,> 52 µM
same,GI50,SR leukemia,1.98 µM
same,TGI,SR leukemia,4.39 µM
same,GI50,OVCAR-4 ovarian,19.8 µM
same,TGI,OVCAR-4 ovarian,40 µM
same,GI50,SF-268 CNS,18.6 µM
same,TGI,SF-268 CNS,42 µM
same,GI50,LOX IMVI melanoma,14.6 µM
same,TGI,LOX IMVI melanoma,32 µM
same,GI50,HOP-92 NSCLC,14.2 µM
same,TGI,HOP-92 NSCLC,32.1 µM
same,GI50,T-47D breast,18.9 µM
same,TGI,T-47D breast,44.9 µM
same,GI50,SNB-75 CNS,16.5 µM
same,TGI,SNB-75 CNS,32.9 µM
same,GI50,UO-31 renal,21 µM
same,TGI,UO-31 renal,> 56.2 µM
